In brackets after ≈: the same amount, converted by molar mass. Like-named read-outs stand apart in the source and are kept apart here.
What was measured:
[1] = system: Bacillus subtilis 168CA; assay: Minimum Inhibitory Concentration (MIC) testing, broth microdilution, Bacillus subtilis; format: cell-based; details: for MIC: read-out: Bacillus subtilis MICs Activity
Procedure, shortened: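 MICs were scored A (≦8 μg/ml), B (16–64 μg/ml) or C (>64 μg/ml), read as the lowest concentration preventing visible growth by eye and spectrophotometry. Plates incubated overnight (16–20 h) at 37 °C, inoculum OD 0.09 diluted 1:100 in 2× broth, per NCCLS guidelines.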

[2] = system: Staphylococcus aureus ATCC29213; assay: Minimum Inhibitory Concentration (MIC) testing, broth microdilution, Staphylococcus aureus; format: cell-based
Procedure, shortened: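 Broth microdilution per NCCLS M7-A5 in Mueller Hinton broth, with compound in 1.6% DMSO and inoculum at OD 0.09 diluted 1:100. Plates incubated 16–20 h at 37°C. MIC is the lowest concentration with no visible growth; scored A ≤8, B 16–64, C >64 μg/ml.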

[3] = Staphylococcus aureus ATCC29213, read-out: Staphylococcus aureus MICs Activity

Structure (SMILES) | MIC ([1]; Bacillus subtilis 168CA) [µg/mL] | MIC [2, 3] [µg/mL] | other results
COc1ccc(-c2nc(COc3ccc(F)c(C(N)=O)c3F)sc2-c2ccc(O)cc2)cc1 [Example 279, 2,6-Difluoro-3-[5-(4-hydroxy-phenyl)-4-(4-methoxy-phenyl)-thiazol-2-ylmethoxy]-benzamide] | < 8 | < 8 | –
NC(=O)c1cccc(OCCCCCCc2ccccc2)c1 [Example 36, 3-[(6-Phenylhexyl)oxy]benzenecarboxamide] | < 8 | > 64 | –
CCCC(C)COc1cccc(C(N)=O)c1 (stereo not shown) [Example 39, 3-[(2-Methylpentyl)oxy]benzenecarboxamide] | 16 to 64 (≈ 72.3 to 289 µM) | 16 to 64 (≈ 72.3 to 289 µM) | –
CCCCCCOCCOc1ccc(F)c(C(N)=O)c1F [Example 85, 2,6-Difluoro-3-[2-(hexyloxy)ethoxy]benzenecarboxamide] | < 8 | < 8 | –
COc1ccc(-c2nc(COc3ccc(F)c(C(N)=O)c3F)sc2-c2cccc(OC)c2)cc1 [Example 281, 2,6-Difluoro-3-[5-(3-methoxy-phenyl)-4-(4-methoxy-phenyl)-thiazol-2-ylmethoxy]-benzamide] | < 8 | < 8 | –
NC(=O)c1c(F)ccc(OCc2nc(-c3ccc(Cl)cc3)cs2)c1Cl [Example 274, 2-Chloro-3-[4-(4-chloro-phenyl)-thiazol-2-ylmethoxy]-6-fluoro-benzamide] | < 8 | < 8 | –
NC(=O)c1c(Cl)ccc(OCc2nc(-c3ccc(Cl)cc3)cs2)c1F [Example 273, 6-Chloro-3-[4-(4-chloro-phenyl)-thiazol-2-ylmethoxy]-2-fluoro-benzamide] | < 8 | < 8 | –
CC/C=C\CCCCCOc1ccc(F)c(C(N)=O)c1F [Example 86, 2,6-Difluoro-3-[(Z)-6-nonenyloxy]benzenecarboxamide] | < 8 | < 8 | –
NC(=O)c1cccc(OCc2nc3cc(Cl)ccc3s2)c1F [Example 219, 3-[(5-Chloro-1,3-benzothiazol-2-yl)methoxy]-2-fluorobenzenecarboxamide] | < 8 | < 8 | –
CCCCOC(=O)COc1ccc(F)c(C(N)=O)c1F [Example 83, Butyl 2-[3-(aminocarbonyl)-2,4-difluorophenoxy]acetate] | < 8 | 16 to 64 (≈ 55.7 to 223 µM) | –
COc1ccc(-c2nc(COc3ccc(F)c(C(N)=O)c3F)sc2C#N)cc1 [Example 289, 3-[5-Cyano-4-(4-methoxy-phenyl)-thiazol-2-ylmethoxy]-2,6-difluoro-benzamide] | < 8 | < 8 | –
CCCCCC#CCOc1cccc(C(N)=O)c1 [Example 31, 3-(2-Octynyloxy)benzenecarboxamide] | 16 to 64 (≈ 65.2 to 261 µM) | 16 to 64 (≈ 65.2 to 261 µM) | –
CC(Oc1ccc(F)c(C(N)=O)c1F)c1nc2cc(Cl)ccc2s1 (stereo not shown) [Example 124, 3-[1-(5-Ohloro-benzothiazol-2-yl)-ethoxy]-2,6-difluoro-benzamide] | – | – | Bacillus subtilis MICs Activity ([1]; Bacillus subtilis 168CA): A (‘A’ if the MIC was ≦8 micrograms/ml); Staphylococcus aureus MICs Activity ([2]; Staphylococcus aureus ATCC29213): A (‘A’ if the MIC was ≦8 micrograms/ml)
CCCCCCCCCOc1ccc(F)c(C(N)=O)c1 [Example 70, 2-Fluoro-5-(nonyloxy)benzenecarboxamide] | < 8 | < 8 | –
CCCCCC/C=C/COc1cccc(C(N)=O)c1 [Example 49, 3-[(E)-2-Nonenyloxy]benzenecarboxamide] | < 8 | < 8 | –
COc1ccc(-c2nc(COc3ccc(F)c(C(N)=O)c3F)sc2-c2cncs2)cc1 [Example 164, 2,6-Difluoro-3-[4-(4-methoxy-phenyl)-[5,5′]bithiazolyl-2-ylmethoxy]-benzamide] | – | – | MIC ([1]; Bacillus subtilis, 168CA): < 8 µg/mL; MIC ([2]; Staphylococcus aureus, ATCC29213, read-out: Staphylococcus aureus MICs Activity): < 8 µg/mL
CC(C)=CCC/C(C)=C/CCC(C)COc1cccc(C(N)=O)c1 (stereo not shown) [Example 55, 3-{[(5E)-2,6,10-Trimethyl-5,9-undecadienyl]oxy}benzenecarboxamide] | < 8 | < 8 | –

Second part, led by results:

MIC ([1]; Bacillus subtilis 168CA) [µg/mL] | MIC [2, 3] [µg/mL] | Structure (SMILES) | other results
< 8 | < 8 | NC(=O)c1c(F)ccc(OCc2nc(-c3ccccc3)cs2)c1F [Example 235, 2,6-Difluoro-3-[(4-phenyl-1,3-thiazol-2-yl)methoxy]benzenecarboxamide] | –
16 to 64 (≈ 46.2 to 185 µM) | < 8 | NC(=O)c1c(F)ccc(OCc2nc(-c3ccc(O)cc3)co2)c1F [Example 312, 2,6-Difluoro-3-[4-(4-hydroxy-phenyl)-oxazol-2-ylmethoxy]-benzamide] | –
< 8 | < 8 | NC(=O)c1c(F)ccc(OCc2coc(-c3ccccc3)n2)c1F [Example 132, 2,6-Difluoro-3-(2-phenyl-oxazol-4-ylmethoxy)-benzamide] | –
< 8 | < 8 | NC(=O)c1c(F)ccc(OCc2coc(-c3cccs3)n2)c1F [Example 133, 2,6-Difluoro-3-(2-thiophen-2-yl-oxazol-4-ylmethoxy)-benzamide] | –
< 8 | < 8 | NC(=O)c1c(F)ccc(OCc2csc(-c3ccc(F)cc3)n2)c1F [Example 305, 2,6-Difluoro-3-[2-(4-fluoro-phenyl)-thiazol-4-ylmethoxy]-benzamide] | –
< 8 | < 8 | COc1ccc(-c2nc(COc3ccc(F)c(C(N)=O)c3F)cs2)cc1 [Example 323, 2,6-Difluoro-3-[2-(4-methoxy-phenyl)-thiazol-4-ylmethoxy]-benzamide] | –
< 8 | < 8 | C=CCc1ccc2sc(COc3ccc(F)c(C(N)=O)c3F)nc2c1 [Example 126, 3-(5-Allyl-benzothiazol-2-ylmethoxy)-2,6-difluoro-benzamide] | –
> 64 | > 64 | Cc1ccc(COc2ccc(F)c(C(N)=O)c2F)o1 [Example 185, 2,6-Difluoro-3-[(5-methyl-2-furyl)methoxy]benzenecarboxamide] | –
< 8 | < 8 | NC(=O)c1c(F)ccc(OCc2nc3cc(-c4ccccc4O)ccc3s2)c1F [Example 157, 2,6-Difluoro-3-[5-(2-hydroxy-phenyl)-benzothiazol-2-ylmethoxy]-benzamide] | –
16 to 64 (≈ 44.2 to 177 µM) | < 8 | NC(=O)c1c(F)ccc(OCc2nc(-c3cccc(O)c3)cs2)c1F [Example 334, 2,6-Difluoro-3-[4-(3-hydroxy-phenyl)-thiazol-2-ylmethoxy]-benzamide] | –
16 to 64 (≈ 52.6 to 210 µM) | > 64 | NC(=O)c1c(F)ccc(OCc2nc3ccccc3o2)c1F [Example 209, 3-(1,3-Benzoxazol-2-ylmethoxy)-2,6-difluorobenzenecarboxamide] | –
16 to 64 (≈ 48.2 to 193 µM) | 16 to 64 (≈ 48.2 to 193 µM) | NC(=O)c1c(F)ccc(OCc2nc(-c3cccnc3)no2)c1F [Example 262, 2,6-Difluoro-3-[3-(3-pyridinyl)-1,2,4-oxadiazol-5-yl]methoxybenzenecarboxamide] | –
< 8 | < 8 | Cc1ccc2sc(COc3ccc(F)c(C(N)=O)c3F)nc2c1 [Example 148, 2,6-Difluoro-3-(5-methyl-benzothiazol-2-ylmethoxy)-benzamide] | –
< 8 | < 8 | COc1ccc(-c2csc(COc3ccc(F)c(C(N)=O)c3F)n2)cc1 [Example 105, 3-[4-(4-Methoxyphenyl)thiazol-2-ylmethoxy]-2,6-difluoro-benzamide] | –
< 8 | < 8 | NC(=O)c1c(F)ccc(OCc2cccc(Oc3ccccc3)c2)c1F [Example 162, 2,6-Difluoro-3-(3-phenoxy-benzyloxy)-benzamide] | –
< 8 | < 8 | NC(=O)c1c(F)ccc(OCc2nc(-c3c(Cl)cccc3Cl)no2)c1F [Example 260, 3-[3-(2,6-Dichlorophenyl)-1,2,4-oxadiazol-5-yl]methoxy-2,6-difluorobenzenecarboxamide] | –
< 8 | 16 to 64 (≈ 52.8 to 211 µM) | NC(=O)c1c(F)ccc(OCc2cc3ccccc3o2)c1F [Example 207, 3-(1-Benzofuran-2-ylmethoxy)-2,6-difluorobenzenecarboxamide] | –
< 8 | 16 to 64 (≈ 42.1 to 169 µM) | NC(=O)c1c(F)ccc(OCc2nc(Cc3ccc(Cl)cc3)no2)c1F [Example 265, 3-[3-(4-Chlorobenzyl)-1,2,4-oxadiazol-5-yl]methoxy-2,6-difluorobenzenecarboxamide] | –
< 8 | 16 to 64 (≈ 53.7 to 215 µM) | NC(=O)c1c(F)ccc(OCc2cccc(Cl)c2)c1F [Example 331, 3-(3-Chloro-benzyloxy)-2,6-difluoro-benzamide] | –
< 8 | < 8 | NC(=O)c1c(F)ccc(OCc2nc(-c3ccc(Cl)cc3)no2)c1Cl [Example 270, 2-Chloro-3-[3-(4-chloro-phenyl)-[1,2,4]oxadiazol-5-ylmethoxy]-6-fluoro-benzamide] | –
16 to 64 (≈ 47.4 to 190 µM) | 16 to 64 (≈ 47.4 to 190 µM) | NC(=O)c1c(F)ccc(OCc2nnc(-c3cccs3)o2)c1F [Example 152, 2,6-Difluoro-3-(5-thiophen-2-yl-[1,3,4]oxadiazol-2-ylmethoxy)-benzamide] | –
16 to 64 (≈ 46.3 to 185 µM) | 16 to 64 (≈ 46.3 to 185 µM) | NC(=O)c1c(F)ccc(OCc2nc(Cc3ccccc3)no2)c1F [Example 266, 3-[(3-Benzyl-1,2,4-oxadiazol-5-yl)methoxy]-2,6-difluorobenzenecarboxamide] | –
< 8 | < 8 | N#Cc1ccc(-c2csc(COc3ccc(F)c(C(N)=O)c3F)n2)cc1 [Example 276, 3-[4-(4-Cyano-phenyl)-thiazol-2-ylmethoxy]-2,6-difluoro-benzamide] | –
< 8 | < 8 | Cc1ccc(-c2nc(CCOc3ccc(F)c(C(N)=O)c3F)c(C)o2)cc1 [Example 333, 2,6-Difluoro-3-[2-(5-methyl-2-p-tolyl-oxazol-4-yl)-ethoxy]-benzamide] | –

From patent US8088791B2, “Antibacterial agents” (Biots Scientific Management Pty Ltd, priority 2006, dated 2012)
